The source of these data is patent publication US6689883B1, “Substituted pyridines and pyridazines with angiogenesis inhibiting activity” (Bayer Pharmaceuticals Corporation, priority 1999, dated 2004).

The assay deals with T1, cytosolic kinase domain of KDR kinase (Homo sapiens, UniProt P35968).
T1 construct: The cytosolic kinase domain of KDR kinase was expressed as a 6His fusion protein in Sf9 insect cells; 6His; made in house; host or cells: Sf9 insect cells
T1 sequence (P35968 834-1162 limits assumed): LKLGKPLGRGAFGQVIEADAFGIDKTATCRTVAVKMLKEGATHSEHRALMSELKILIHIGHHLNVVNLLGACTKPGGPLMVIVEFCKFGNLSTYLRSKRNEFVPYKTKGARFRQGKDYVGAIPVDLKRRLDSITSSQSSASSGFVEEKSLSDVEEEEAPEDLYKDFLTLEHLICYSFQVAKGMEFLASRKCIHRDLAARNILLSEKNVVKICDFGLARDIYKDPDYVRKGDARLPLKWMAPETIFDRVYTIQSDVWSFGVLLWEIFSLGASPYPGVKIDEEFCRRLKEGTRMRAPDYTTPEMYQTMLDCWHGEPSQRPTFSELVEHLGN
The assay can be described thus: KDR Assay (ELISA, poly(Glu4;Tyr1) phosphorylation). Type of assay: biochemical. As to conditions: 3.3 μM ATP, 60 minutes at room temperature. As to the method: The cytosolic kinase domain of KDR kinase was expressed as a 6His fusion protein in Sf9 insect cells. The KDR kinase domain fusion protein was purified over a Ni++ chelating column. Ninety-six well ELISA plates were coated with 5 μg poly(Glu4;Tyr1) (Sigma Chemical Co., St Louis, Mo.) in 100 μl HEPES buffer (20 mM HEPES, pH 7.5, 150 mM NaCl, 0.02% Thimerosal) at 4° overnight. Before use, the plate was washed with HEPES, NaCl buffer and the plates were blocked with 1% BSA, 0.1% Tween 20 in HEPES, NaCl buffer.
Test compounds were serially diluted in 100% DMSO from 4 mM to 0.12 μM in half-log dilutions. These dilutions were further diluted twenty fold in H2O to obtain compound solutions in 5% DMSO. Following loading of the assay plate with 85 μl of assay buffer (20 mM HEPES, pH 7.5, 100 mM KCl, 10 mM MgCl2, 3 mM MnCl2, 0.05% glycerol, 0.005% Triton X-100, 1 mM-mercaptoethanol, with or without 3.3 μM ATP), 5 μl of the diluted compounds were added to a final assay volume of 100 μl. Final concentrations were between 10 μM, and 0.3 nM in 0.25% DMSO. The assay was initiated by the addition of 10 μl (30 ng) of KDR kinase domain.
The assay was incubated with test compound or vehicle alone with gentle agitation at room temperature for 60 minutes. The wells were washed and phosphotyrosines (PY) were probed with an anti-phosphotyrosine (PY), mAb clone 4G10 (Upstate Biotechnology, Lake Placid, N.Y.). PY/anti-PY complexes were detected with an anti-mouse IgG/HRP conjugate (Amersham International plc, Buckinghamshire, England). Phosphotyrosine was quantitated by incubating with 100 μl 3,3′,5,5′tetramethylbenzidine solution (Kirkegaard and Perry, TMB Microwell 1 Component peroxidase substrate). Color development was arrested by the addition of 100 μl 1% HCl-based stop solution (Kirkegaard and Perry, TMB 1 Component Stop Solution).
Optical densities were determined spectrophotometrically at 450 nm in a 96-well plate reader, SpectraMax 250 (Molecular Devices). Background (no ATP in assay) OD values were subtracted from all ODs and the percent inhibition was calculated according to the equation: [formula]
For orientation: IC50 means the concentration at which inhibition is half-maximal. Read a high IC50 as weaker potency. With `Clc1ccc(Nc2ncc(Sc3ccncc3)c3ccccc23)cc1` [Example 1, 1-(4-chlorophenylamino)-4-(4-pyridylthio)isoquinoline], the IC50 is ≤ 100 nM.

Regarding `Clc1ccc(Nc2ncc(Cc3ccncc3)c3ccccc23)cc1` [Example 4, 1-(4-chlorophenylamino)-4-(4-pyridylmethyl)isoquinoline], the IC50 was ≤ 100 nM. In turn, `Cc1ccc(Nc2ncc(Cc3ccncc3)c3ccccc23)cc1F` [Example 7, 1-(3-fluoro-4-methylphenylamino)-4-(4-pyridylmethyl)-isoquinoline] showed an IC50 of 100 to 1000 nM. As for `NC(=O)c1cc(Cc2cnc(Nc3ccc(Cl)cc3)c3ccccc23)ccn1` [Example 12, 1-(4-chlorophenylamino)-4-(2-aminocarbonyl-4-pyridylmethyl)isoquinoline], the figure is ≤ 100 nM; as for `CNC(=O)c1cc(Cc2cnc(Nc3ccc(Cl)cc3)c3ccccc23)ccn1` [Example 13, 1-(4-chlorophenylamino)-4-(2-methylaminocarbonyl-4-pyridylmethyl)isoquinoline], ≤ 100 nM. As for `NC(=O)c1cc(COc2nnc(Nc3ccc(Cl)cc3)c3ccoc23)ccn1` [Example 16, 4-(4-chlorophenylamino)-7-(2-aminocarbonyl-4-pyridylmethoxy)furo-[2,3-d]pyridazine], the figure is ≤ 100 nM; as for `Clc1ccc(Nc2nnc(Nc3ccc4ncsc4c3)c3sccc23)cc1` [Example 17, 4-(4-chlorophenylamino)-7-(benzothiazol-6-ylamino)thieno[2,3-d]pyridazine], ≤ 100 nM; as for `Brc1ccc2c(c1)CCN2c1nnc(OCc2ccncc2)c2occc12` [Example 19, 4-(5-bromoindolin-1-yl)-7-(4-pyridylmethoxy)furo[2,3-d]pyridazine], ≤ 100 nM.

As to `CNC(=O)c1cc(COc2nnc(Nc3ccc(OC)cc3)c3ccoc23)ccn1` [Example 20, 4-(4-methoxyphenylamino)-7-(2-methylaminocarbonyl-4-pyridylmethoxy)furo-[2,3-d]pyridazine], the IC50 is ≤ 100 nM.

With `COc1ccc(Nc2nnc(OCc3ccnc(C(N)=O)c3)c3occc23)cc1` [Example 22, 4-(4-methoxyphenylamino)-7-(2-aminocarbonyl4-pyridylmethoxy)furo-[2,3-d]pyridazine], the half-inhibitory concentration (IC50) is ≤ 100 nM. As for `c1cc2c(Nc3ccc4nn[nH]c4c3)nnc(Nc3ccc4nn[nH]c4c3)c2s1` [Example 26], the figure is > 1000 nM. As for `c1cc2c(Nc3ccc4nn[nH]c4c3)nnc(Nc3ccc4nn[nH]c4c3)c2o1` [Example 29], the IC50 was > 1000 nM. On to `c1cc2c(Nc3ccc4[nH]ncc4c3)nnc(Nc3ccc4[nH]ncc4c3)c2o1` [Example 30], for which the IC50 was > 1000 nM.

In the case of `c1nc2c(Nc3ccc4nn[nH]c4c3)nnc(Nc3ccc4nn[nH]c4c3)c2[nH]1` [Example 31], the IC50 was > 1000 nM.

Consider `c1nc2c(Nc3ccc4[nH]ncc4c3)nnc(Nc3ccc4[nH]ncc4c3)c2[nH]1` [Example 32], for which the IC50 is > 1000 nM.

For the compound `c1nc2c(Nc3ccc4ncsc4c3)nnc(Nc3ccc4ncsc4c3)c2[nH]1` [Example 33], the IC50 was > 1000 nM. As for `CNC(=O)c1cc(COc2nnc(Nc3ccc(F)cc3)c3ccoc23)ccn1` [Example 37], the figure is ≤ 100 nM. As for `CNC(=O)c1cc(COc2nnc(Nc3ccc(Br)cc3)c3ccoc23)ccn1` [Example 38], the figure is ≤ 100 nM; as for `CNC(=O)c1cc(COc2nnc(Nc3ccc(C)cc3)c3ccoc23)ccn1` [Example 39], ≤ 100 nM; as for `CNC(=O)c1cc(COc2nnc(Nc3cccc(C)c3)c3ccoc23)ccn1` [Example 40], ≤ 100 nM.

Regarding `CNC(=O)c1cc(COc2nnc(Nc3ccc(N(C)C)cc3)c3ccoc23)ccn1` [Example 41], the IC50 was > 1000 nM.

For `CNC(=O)c1cc(COc2nnc(Nc3ccc(C(F)(F)F)cc3)c3ccoc23)ccn1` [Example 42], the IC50 was ≤ 100 nM. Then `CNC(=O)c1cc(COc2nnc(Nc3ccc(OC(F)(F)F)cc3)c3ccoc23)ccn1` [Example 43], with ≤ 100 nM; and `CNC(=O)c1cc(COc2nnc(Nc3ccc(OC)c(Cl)c3)c3ccoc23)ccn1` [Example 44], with ≤ 100 nM; and `CNC(=O)c1cc(COc2nnc(Nc3ccc(F)c(F)c3)c3ccoc23)ccn1` [Example 47], with ≤ 100 nM. As for `CNC(=O)c1cc(COc2nnc(Nc3ccc4c(c3)CCC4)c3ccoc23)ccn1` [Example 49], the figure is ≤ 100 nM; as for `CNC(=O)c1cc(COc2nnc(Nc3cccc(OC)c3)c3ccoc23)ccn1` [Example 51], ≤ 100 nM; as for `CNC(=O)c1cc(COc2nnc(Nc3ccc4c(c3)OCO4)c3ccoc23)ccn1` [Example 52], ≤ 100 nM.

For the compound `CNC(=O)c1cc(COc2nnc(Nc3ccc(Cl)c(Cl)c3)c3ccoc23)ccn1` [Example 53], the IC50 was ≤ 100 nM. As for `CNC(=O)c1cc(COc2nnc(Nc3cc(C)cc(C)c3)c3ccoc23)ccn1` [Example 54], the figure is ≤ 100 nM; as for `COc1ccc(Nc2nnc(OCc3ccncc3)c3occc23)cc1` [Example 56], ≤ 100 nM. As for `CNC(=O)c1cc(COc2nnc(Nc3ccc(O)cc3)c3ccoc23)ccn1` [Example 57], the figure is ≤ 100 nM; as for `CNC(=O)c1cc(COc2nnc(Nc3ccccc3)c3ccoc23)ccn1` [Example 59], ≤ 100 nM; as for `CNC(=O)c1cc(COc2nnc(Nc3ccc(C)c(OC)c3)c3ccoc23)ccn1` [Example 60], ≤ 100 nM. As for `CNC(=O)c1cc(COc2nnc(Nc3ccc4sc(C)nc4c3)c3ccoc23)ccn1` [Example 62], the figure is ≤ 100 nM; as for `CNC(=O)c1cc(COc2nnc(Nc3ccc4c(c3)CCO4)c3ccoc23)ccn1` [Example 65], ≤ 100 nM; as for `CNC(=O)c1cc(COc2nnc(Nc3ccc4c(c3)CCO4)c3ccsc23)ccn1` [Example 66], ≤ 100 nM. `CNC(=O)c1cc(COc2nnc(Nc3cccc(C)c3)c3ccsc23)ccn1` [Example 68]: the IC50 is ≤ 100 nM. As for `CNC(=O)c1cc(COc2nnc(Nc3ccc(OC)cc3)c3ccsc23)ccn1` [Example 69], the figure is ≤ 100 nM; as for `CNC(=O)c1cc(COc2nnc(Nc3ccc(OC(F)(F)F)cc3)c3ccsc23)ccn1` [Example 70], ≤ 100 nM. Then `CNC(=O)c1cc(COc2nnc(Nc3ccc(C(F)(F)F)cc3)c3ccsc23)ccn1` [Example 71], with ≤ 100 nM; and `CNC(=O)c1cc(COc2nnc(Nc3ccc(Br)cc3)c3ccsc23)ccn1` [Example 72], with ≤ 100 nM. Then `CNC(=O)c1cc(COc2nnc(Nc3ccc4c(c3)CCC4)c3ccsc23)ccn1` [Example 73], with ≤ 100 nM; and `CNC(=O)c1cc(COc2nnc(Nc3ccc4c(c3)OCO4)c3ccsc23)ccn1` [Example 74], with ≤ 100 nM. Turning to `c1nc2ccc(Nc3nnc(Nc4ccc5ncsc5c4)c4sccc34)cc2s1` [Example 75], the IC50 was ≤ 100 nM. Regarding `Cc1ccc(Nc2nnc(Nc3ccc4ncsc4c3)c3sccc23)c(C)c1` [Example 78], the IC50 is ≤ 100 nM. With `COc1cc(Nc2nnc(Nc3ccc4ncsc4c3)c3sccc23)cc(OC)c1OC` [Example 80], the IC50 was > 1000 nM. With `CN(C)C(=O)c1cc(COc2nnc(Nc3ccc(Cl)cc3)c3ccoc23)ccn1` [Example 81], the IC50 was > 1000 nM.

In the case of `O=C(NC1CC1)c1cc(COc2nnc(Nc3ccc(Cl)cc3)c3ccoc23)ccn1` [Example 82B], the IC50 is ≤ 100 nM. On to `O=C(NCCO)c1cc(COc2nnc(Nc3ccc(Cl)cc3)c3ccoc23)ccn1` [Example 82C], for which the IC50 was ≤ 100 nM.

Consider `CCNC(=O)c1cc(COc2nnc(Nc3ccc(Cl)cc3)c3ccoc23)ccn1` [Example 82D], for which the IC50 was ≤ 100 nM. As for `c1ccc2c(Nc3ccc4nn[nH]c4c3)nnc(Nc3ccc4nn[nH]c4c3)c2c1` [Example 94], the figure is > 1000 nM. On to `Brc1ccc2c(c1)CCN2c1nnc(Nc2ccc3ncsc3c2)c2ccccc12` [Example 97], for which the IC50 was ≤ 100 nM.

For the compound `FC1(F)Oc2ccc(Nc3nnc(Nc4ccc5ncsc5c4)c4ccccc34)cc2O1` [Example 98], the IC50 is ≤ 100 nM.
